From US10266550B2, “Bacterial topoisomerase I inhibitors with antibacterial activity” (The Florida International University Board of Trustees, priority 2016, dated 2019)
Converted amounts (≈) assume the structure as drawn. Read-outs that look alike come from different tables or passages of the source.

Columns and labels:
E. coli DNA gyrase = E. coli DNA gyrase (Escherichia coli (strain K12), UniProt P0AES4+P0AES6); experiment: DNA gyrase supercoiling inhibition assay; type: biochemical; details: for IC50: supercoiling of relaxed DNA, read-out: Topoisomerase inhibitory activity (IC50) E. coli DNA gyrase (type IIA)
Description: (§1) Recombinant E. coli topoisomerase I and gyrase expressed in E. coli were purified as described previously.
The samples were incubated at 37° C. for 30 minutes before being terminated by the addition of a buffer containing 5% SDS, 0.25% bromophenol blue, and 25% glycerol. The reactions were then analyzed by agarose gel electrophoresis.

E. coli (MG1655) WT = experiment: MIC, microdilution in Mueller-Hinton Broth; details: wild type, read-out: Whole cell based antibacterial activity (MIC) E. coli (MG1655) WT
[1] = system: E. coli Imp4213 (BAS3023); experiment: MIC, microdilution in Mueller-Hinton Broth; type: cell-based; details: for MIC: Escherichia coli, read-out: Whole cell based antibacterial activity (MIC) E. coli Imp4213 (BAS3023), membrane permeable imp mutant
M. tuberculosis (H37Rv) = experiment: MIC, microplate Alamar blue assay (MABA); type: cell-based
Human topoisomerase I = Human topoisomerase I (Homo sapiens (Human), UniProt P11387); experiment: Human topoisomerase I relaxation inhibition assay; type: biochemical; details: read-out: Topoisomerase inhibitory activity (IC50) Human topo I (type IB)
Sequence of Human topoisomerase I (P11387 whole entry): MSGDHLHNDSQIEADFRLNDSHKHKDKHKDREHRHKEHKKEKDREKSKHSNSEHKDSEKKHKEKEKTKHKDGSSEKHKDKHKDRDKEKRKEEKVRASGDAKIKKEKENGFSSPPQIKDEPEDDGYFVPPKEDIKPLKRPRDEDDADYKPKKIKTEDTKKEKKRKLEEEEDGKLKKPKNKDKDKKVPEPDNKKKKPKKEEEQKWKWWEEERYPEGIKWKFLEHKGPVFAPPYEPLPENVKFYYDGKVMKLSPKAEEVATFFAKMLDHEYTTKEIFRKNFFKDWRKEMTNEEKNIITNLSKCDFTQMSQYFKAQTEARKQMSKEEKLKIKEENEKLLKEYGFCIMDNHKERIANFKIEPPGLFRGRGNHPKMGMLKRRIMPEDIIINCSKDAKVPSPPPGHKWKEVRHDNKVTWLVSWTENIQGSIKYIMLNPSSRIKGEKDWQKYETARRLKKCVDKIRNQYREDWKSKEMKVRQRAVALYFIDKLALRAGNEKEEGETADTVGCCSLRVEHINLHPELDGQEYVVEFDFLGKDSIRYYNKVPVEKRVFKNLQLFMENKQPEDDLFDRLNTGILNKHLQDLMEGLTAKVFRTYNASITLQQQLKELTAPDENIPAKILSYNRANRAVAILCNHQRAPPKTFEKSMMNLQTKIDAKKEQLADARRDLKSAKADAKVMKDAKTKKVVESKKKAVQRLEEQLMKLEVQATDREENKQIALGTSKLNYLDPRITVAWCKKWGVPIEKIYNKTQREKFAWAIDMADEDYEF
Description: Human topoisomerase I relaxation assays were carried out with 0.5 U of enzyme in reaction buffer supplied by the manufacturer. The enzyme was mixed with the indicated concentration of compound dissolved before 200 ng of supercoiled pBAD/Thio plasmid DNA was added in the same buffer, for a final volume of 20 μL. Following incubation at 37° C. for 30 minutes, the reactions were terminated with a buffer containing 5% SDS, 0.25% bromophenol blue, and 25% glycerol, and analyzed by agarose gel electrophoresis.
Human topoisomerase I and topoisomerase IIα were purchased from TopoGen (Buena vista, CO, USA).

Vero cells = experiment: Vero cell cytotoxicity assay; type: cell-based; details: Chlorocebus sabaeus, Vero; cytotoxicity
Description: (§2) MICs of compounds against M. tuberculosis were determined by a modified microplate Alamar blue assay (MABA). Vero cell cytotoxicity assay was performed as previously described.

Human topoisomerase IIα = Human topoisomerase IIα (Homo sapiens (Human), UniProt P11388); experiment: Human topoisomerase IIα decatenation inhibition assay; type: biochemical; details: kDNA decatenation; read-out: Topoisomerase inhibitory activity (IC50) Human topo IIα (type IIA)
Sequence of Human topoisomerase IIα (P11388 whole entry): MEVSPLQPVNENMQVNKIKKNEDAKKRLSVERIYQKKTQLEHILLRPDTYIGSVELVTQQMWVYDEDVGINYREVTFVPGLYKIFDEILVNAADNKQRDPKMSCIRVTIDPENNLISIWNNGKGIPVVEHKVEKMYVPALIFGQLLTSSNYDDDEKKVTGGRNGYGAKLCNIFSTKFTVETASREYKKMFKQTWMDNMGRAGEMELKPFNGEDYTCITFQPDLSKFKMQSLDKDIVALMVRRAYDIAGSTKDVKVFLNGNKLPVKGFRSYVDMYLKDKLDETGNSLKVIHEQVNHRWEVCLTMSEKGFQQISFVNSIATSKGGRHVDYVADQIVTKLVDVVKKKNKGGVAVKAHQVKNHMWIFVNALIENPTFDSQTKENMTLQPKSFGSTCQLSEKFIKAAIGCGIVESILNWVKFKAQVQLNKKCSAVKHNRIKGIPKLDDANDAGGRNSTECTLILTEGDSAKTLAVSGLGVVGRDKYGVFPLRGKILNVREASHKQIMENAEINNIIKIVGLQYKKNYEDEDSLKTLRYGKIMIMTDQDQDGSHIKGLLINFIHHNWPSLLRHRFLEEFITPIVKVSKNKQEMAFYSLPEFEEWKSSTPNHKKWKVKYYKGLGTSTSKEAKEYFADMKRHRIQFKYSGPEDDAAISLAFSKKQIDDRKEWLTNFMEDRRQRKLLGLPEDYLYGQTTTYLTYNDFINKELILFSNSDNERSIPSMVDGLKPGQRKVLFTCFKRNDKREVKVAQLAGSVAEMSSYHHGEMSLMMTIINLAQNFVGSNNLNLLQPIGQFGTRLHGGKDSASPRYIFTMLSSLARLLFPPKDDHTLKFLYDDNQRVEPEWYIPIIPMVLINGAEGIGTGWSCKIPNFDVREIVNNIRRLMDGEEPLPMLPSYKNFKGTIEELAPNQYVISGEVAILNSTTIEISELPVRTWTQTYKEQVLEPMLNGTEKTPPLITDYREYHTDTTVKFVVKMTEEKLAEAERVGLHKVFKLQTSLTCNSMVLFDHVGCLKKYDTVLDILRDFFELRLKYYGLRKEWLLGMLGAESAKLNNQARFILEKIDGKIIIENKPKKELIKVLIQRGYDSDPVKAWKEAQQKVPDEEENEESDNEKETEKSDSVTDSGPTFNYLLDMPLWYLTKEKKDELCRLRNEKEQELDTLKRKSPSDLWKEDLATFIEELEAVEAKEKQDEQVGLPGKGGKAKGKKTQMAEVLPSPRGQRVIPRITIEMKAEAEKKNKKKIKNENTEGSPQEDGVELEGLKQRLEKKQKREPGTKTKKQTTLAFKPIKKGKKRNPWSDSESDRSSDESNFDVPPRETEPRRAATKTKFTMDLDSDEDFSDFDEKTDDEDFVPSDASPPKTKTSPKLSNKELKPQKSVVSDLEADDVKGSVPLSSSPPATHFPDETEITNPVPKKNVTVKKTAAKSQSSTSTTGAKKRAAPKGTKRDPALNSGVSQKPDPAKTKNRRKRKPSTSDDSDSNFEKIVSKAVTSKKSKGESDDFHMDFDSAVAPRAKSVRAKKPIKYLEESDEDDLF
Description: Human topoisomerase I and topoisomerase IIα were purchased from TopoGen (Buena vista, CO, USA). […] The reactions were then analyzed by electrophoresis in 1% agarose gels containing […] ethidium bromide before being photographed under UV light.

E. coli topoisomerase I = E. coli topoisomerase I (Escherichia coli (strain K12), UniProt P06612); experiment: biochemical; type: biochemical; details: for PIC50 (pIC50 = −log IC50): experimental, converted from IC50; for IC50: relaxation of supercoiled plasmid DNA
Sequence of E. coli topoisomerase I (P06612 whole entry, looked up): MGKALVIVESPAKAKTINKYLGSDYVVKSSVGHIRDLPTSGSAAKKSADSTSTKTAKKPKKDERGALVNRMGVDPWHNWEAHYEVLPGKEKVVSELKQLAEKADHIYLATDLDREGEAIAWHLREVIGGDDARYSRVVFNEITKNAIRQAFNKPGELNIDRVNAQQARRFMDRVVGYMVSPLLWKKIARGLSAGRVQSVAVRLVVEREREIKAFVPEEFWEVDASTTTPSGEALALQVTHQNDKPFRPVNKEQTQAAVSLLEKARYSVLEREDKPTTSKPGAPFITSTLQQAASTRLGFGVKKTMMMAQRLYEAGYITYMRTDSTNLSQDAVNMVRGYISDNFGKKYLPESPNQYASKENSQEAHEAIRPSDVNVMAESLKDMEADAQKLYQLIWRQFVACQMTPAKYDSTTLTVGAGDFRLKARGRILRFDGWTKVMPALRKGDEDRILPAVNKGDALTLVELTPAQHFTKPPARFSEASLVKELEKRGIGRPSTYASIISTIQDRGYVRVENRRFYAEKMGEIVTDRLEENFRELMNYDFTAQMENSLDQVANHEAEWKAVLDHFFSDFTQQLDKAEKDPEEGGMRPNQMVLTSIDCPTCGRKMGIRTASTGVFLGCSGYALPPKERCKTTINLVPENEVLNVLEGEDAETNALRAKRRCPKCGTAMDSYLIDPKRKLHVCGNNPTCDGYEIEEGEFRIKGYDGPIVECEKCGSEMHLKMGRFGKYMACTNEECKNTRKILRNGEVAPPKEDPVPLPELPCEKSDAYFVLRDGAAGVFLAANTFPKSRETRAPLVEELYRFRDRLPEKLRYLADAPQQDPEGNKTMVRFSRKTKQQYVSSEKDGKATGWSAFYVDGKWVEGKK
Description: as §1
E. coli Topoisomerase I Relaxation Activity Inhibition Assay
The relaxation activity of E. coli topoisomerase I was assayed in a buffer containing 10 mM Tris-HCl, pH 8.0, 50 mM NaCl, 0.1 mg/mL gelatin, and 0.5 mM MgCl2. Half microliter from the appropriate stock solutions of compounds dissolved in the solvent (DMSO) or the solvent alone (control) was mixed with 9.5 μL of the reaction buffer containing 10 ng of enzyme before the addition of 10 μL of reaction buffer containing 200 ng of supercoiled pBAD/Thio plasmid DNA purified by cesium chloride gradient as substrate. Following incubation at 37° C. for 30 min, the reactions were terminated by the addition of 4 μL of a stop buffer (50% glycerol, 50 mM EDTA, and 0.5% (v/v) bromophenol blue), and analyzed by agarose gel electrophoresis. The gels were stained in ethidium bromide and photographed under UV light.

[2] = Vero cell cytotoxicity assay; type: cell-based
Description: as §2

[3] = system: mycobacterium smegmatis in biofilm; experiment: Biofilm viability by resazurin assay; type: cell-based
Description: Viability of the mycobacteria mycobacterium smegmatis in biofilm was measured by the resazurin assay.
The resazurin assay is a quick method using the resazurin dye as a bacterial respiration indicator to assay the antibacterial activity of various compounds used against bacterial biofilm growth. Such assay is well-known in the art. […] The biofilm was quantified indirectly by measuring the fluorescent, water-soluble resorufin product produced when resazurin is reduced by reactions associated with respiration.

[4] = target: Mycobacterium tuberculosis topoisomerase I (Mycobacterium tuberculosis (strain ATCC 25618 / H37Rv), UniProt P9WG49); experiment: Mycobacterium tuberculosis topoisomerase I inhibition; type: biochemical; details: Table 2; read-out: IC50 against Mycobacterium tuberculosis topoisomerase I
[5] = system: MRSA (staphylococcus aureus BAA44); experiment: MIC against MRSA; type: cell-based
[6] = system: all the test bacteria strains; experiment: Whole cell antibacterial activity across all test strains; type: cell-based; details: range over strains; read-out: MICs against all the test bacteria strains
[7] = 1H NMR experiments
bacterial strains = experiment: Whole cell antibacterial activity after storage; type: cell-based; details: after 4 weeks of storage
[8] = system: several cancer cell lines; details: literature [32]; read-out: IC50 against several cancer cell lines; cited from earlier work
[9] = Mycobacterium tuberculosis, H37RV, MABA, read-out: Whole cell based antibacterial activity (MIC) M. tuberculosis (H37Rv)
[10] = Topoisomerase inhibitory activity (IC50) E. coli topo I (type IA)

Compound	IC50 (E. coli DNA gyrase) [µM]	IC50 (Human topoisomerase I) [µM]	IC50 (Vero cells) [µM]	IC50 (Human topoisomerase IIα) [µM]	MIC (E. coli (MG1655) WT; Escherichia coli, MG1655) [µM]	MIC [1] [µM]	MIC (M. tuberculosis (H37Rv); [9]) [µM]	PIC50 (pIC50 = −log IC50) (E. coli topoisomerase I)	selectivity ratio ([2]; monkey)	IC50 (E. coli topoisomerase I; [10]) [µM]	further results
Nc1ccc2c(c1)Oc1c(NCCN3CCOCC3)c(F)cc3c(=O)c(C(=O)O)cn-2c13 [Compound 11h, 9-Amino-5-fluoro-6-((2-morpholinoethyl)amino)-3-oxo-3H-pyrido[3,2,1-kl]phenoxazine-2-carboxylic acid]	15.6 to 31.2	7.8 to 15.6	43	–	–	–	–	–	–	–	MIC (E. coli (MG1655) WT): >200 µM; Whole cell based antibacterial activity (MIC) E. coli Imp4213 (BAS3023) ([1]; membrane permeable imp mutant): 0.78 µM; MIC (M. tuberculosis (H37Rv); MABA, read-out: Whole cell based antibacterial activity (MIC) M. tuberculosis (H37Rv)): 21.6 µM (≈ 9.51 µg/mL)
O=C(O)c1cn2c3c(c(F)c(F)cc3c1=O)Oc1cc([N+](=O)[O-])c(Cl)cc1-2 [Compound 7e, 10-Chloro-5,6-difluoro-9-nitro-3-oxo-3H-pyrido[3,2,1-kl]phenoxazine-2-carboxylic acid]	62.5	31.2	> 127	125	50 (≈ 19.7 µg/mL)	0.39 (≈ 0.154 µg/mL)	29 (≈ 11.4 µg/mL)	4.51	> 4.4	–	selectivity toward topoisomerase I over DNA gyrase (E. coli DNA gyrase): 2 fold
Nc1ccc2c(c1)Oc1c(N3CCC(N4CCCCC4)CC3)c(F)cc3c(=O)c(C(=O)O)cn-2c13 [Compound 11g, 6-([1,4′-Bipiperidin]-1′-yl)-9-amino-5-fluoro-3-oxo-3H-pyrido[3,2,1-kl]phenoxazine-2-carboxylic acid]	15.6	3.9	24.4	1.95 to 3.9	> 200	0.39 to 0.78 (≈ 0.187 to 0.373 µg/mL)	2.5 (≈ 1.2 µg/mL)	6.31	9.8	0.24 to 0.97	concentration that abolishes 90% of viability in biofilm [3]: 1.5 to 3 µM; MIC (M. tuberculosis (H37Rv); Mycobacterium tuberculosis strain H37Rv, Table 2, read-out: MIC (TB)): 2.5 µM (≈ 1.2 µg/mL); IC50 [4]: 0.24 µM; MIC [5]: 12.5 µM (≈ 5.98 µg/mL); IC50 (E. coli topoisomerase I; read-out: Topoisomerase inhibitory activity (IC50) E. coli topo I (type IA)): 0.48 µM; selectivity ratio ([2]; African green monkey): 9.8
CN1CCN(c2c(F)cc3c(=O)c(C(=O)O)cn4c3c2Oc2cc(N)ccc2-4)CC1 [Compound 11a, 9-Amino-5-fluoro-6-(4-methylpiperazin-1-yl)-3-oxo-3H-pyrido[3,2,1-kl]phenoxazine-2-carboxylic acid]	–	15.6	–	–	6.25 (≈ 2.57 µg/mL)	–	–	6.32	–	0.24 to 0.97	MIC [6]: 0.78 to 7.6 µM (≈ 0.32 to 3.12 µg/mL)
Nc1ccc2c(c1)Oc1c(F)c(F)cc3c(=O)c(C(=O)O)cn-2c13 [Compound 1, 9-Amino-5,6-difluoro-3-oxo-3H-pyrido[3,2,1-kl]phenoxazine-2-carboxylic acid]	> 125	31.3	–	> 500	> 200	0.78 to 1.56 (≈ 0.258 to 0.515 µg/mL)	–	5.71	–	–	precipitation in d6-DMSO solvent [7]: could be easily precipitated out; loss of whole cell antibacterial activity after storage (bacterial strains): 2-4 fold
CN1CCN(c2c(F)cc3c(=O)c(C(=O)O)cn4c3c2Oc2cc([N+](=O)[O-])ccc2-4)CC1 [Compound 10a, 5-Fluoro-6-(4-methylpiperazin-1-yl)-9-nitro-3-oxo-3H-pyrido[3,2,1-kl]phenoxazine-2-carboxylic acid]	–	31.2	95	250 to 500	100 (≈ 44 µg/mL)	1.56 (≈ 0.687 µg/mL)	19 (≈ 8.37 µg/mL)	5.71	5	–	–
Nc1ccc2c(c1)Oc1c(N3CCOCC3)c(F)cc3c(=O)c(C(=O)O)cn-2c13 [Compound 11d, 9-Amino-5-fluoro-6-morpholino-3-oxo-3H-pyrido[3,2,1-kl]phenoxazine-2-carboxylic acid]	7.8	15.6	24.7	15.6	> 200	0.19 to 0.39 (≈ 0.0755 to 0.155 µg/mL)	3.5 (≈ 1.39 µg/mL)	6.01	7.1	–	IC50 [4]: 0.48 µM; MIC [5]: 3 µM (≈ 1.19 µg/mL)
O=C(O)c1cn(C2CC2)c2cc(N3CCNCC3)c(F)cc2c1=O [ciprofloxacin, reference compound]	–	–	–	–	–	–	–	–	–	–	concentration that abolishes 90% of viability in biofilm [3]: ≥ 24 µM
N[C@H]1CCN(c2c(F)cc3c(=O)c(C(=O)O)cn4c3c2Oc2ccccc2-4)C1 [Compound A-62176]	–	–	–	–	–	–	–	–	–	–	IC50 [8]: 0.87 to 4.34 µM
N[C@H]1CCN(c2c(F)cc3c(=O)c(C(=O)O)cn4c3c2Oc2cc([N+](=O)[O-])ccc2-4)C1 [Compound 16, (S)-6-(3-aminopyrrolidin-1-yl)-5-fluoro-9-nitro-3-oxo-3H-pyrido[3,2,1-kl]phenoxazine-2-carboxylic acid]	3.9	7.8	> 50	–	> 200	1.56 (≈ 0.665 µg/mL)	> 50	6.32	–	0.24 to 0.97	–
